Key:
[1] = biological target: JAK2/TYK2 (Homo sapiens, UniProt O60674+P29597); test: Inhibition of TYK2/JAK2 in IL23-stimulated human Kit225 cells by steady-glo luciferase assay
[2] = biological target: JAK1/TYK2 (Homo sapiens, UniProt P23458+P29597); test: Inhibition of TYK2/JAK1 in IFNalpha-stimulated human Kit225 cells by steady-glo luciferase assay
[3] = biological target: T1, Non-receptor tyrosine-protein kinase TYK2 (Homo sapiens, UniProt P29597); test: Inhibition of fluorescein-labeled kinase tracer binding to His-TVMV-fused TYK2 JH2 domain (575 to 869 residues) (unknown origin) measured after 90 mins by HTRF assay
[4] = Permeability across apical to basolateral side in human Caco2 cells; format: ADME, cell-based; settings: Caco-2, read-out: permeability
[5] = Metabolic stability in mouse liver microsomes assessed as parent compound remaining after 10 mins; format: ADME, Microsome; settings: read-out: Stability
[6] = Metabolic stability in rat liver microsomes assessed as parent compound remaining after 10 mins; format: ADME, Microsome; settings: read-out: Stability
[7] = biological target: T1, Non-receptor tyrosine-protein kinase TYK2; test: Inhibition of TYK2 JH2 domain in human whole blood assessed as inhibition of IFNalpha-induced STAT5 phosphorylation preincubated for 1 hr followed by IFNalpha stimulation and measured after 15 mins by fluorescence assay; format: tissue-based
[8] = Efflux ratio of permeability in human Caco2; format: ADME, cell-based; settings: Caco-2
[9] = biological target: 3',5'-cyclic-AMP phosphodiesterase 4D (Homo sapiens, UniProt Q08499); test: Inhibition of [3H]cAMP binding to recombinant human His-Tb fused PDE4D2 (86 to 413 residues) expressed in Escherichia coli using [3H]cAMP as substrate preincubated for 10 mins followed by [3H]cAMP addition and measured after 1 hr by scintillation proximity assay
[10] = Metabolic stability in human liver microsomes assessed as parent compound remaining after 10 mins; format: ADME, Microsome; settings: read-out: Stability
[11] = biological target: JAK3/JAK1 (Homo sapiens, UniProt P23458+P52333); test: Inhibition of JAK1/JAK3 (unknown origin) in IL-2 stimulated cells by cell based assay
[12] = biological target: Tyrosine-protein kinase JAK1 (Homo sapiens, UniProt P23458); test: Inhibition of JAK1 JH1 domain (unknown origin)
[13] = biological target: Tyrosine-protein kinase JAK2 (Homo sapiens, UniProt O60674); test: Inhibition of JAK2 JH1 domain (unknown origin)
[14] = biological target: T1, Non-receptor tyrosine-protein kinase TYK2; test: Inhibition of TYK2 JH1 domain (unknown origin)
[15] = biological target: JAK2/JAK1 (Homo sapiens, UniProt O60674+P23458); test: Inhibition of JAK1/JAK2 (unknown origin) in GM-CSF stimulated cells by cell based assay
[16] = Cmax in mouse at 10 mg/kg, po; format: ADME, organism-based; design: dose 10 mg/kg, route oral; settings: in vivo
[17] = AUClast in mouse at 10 mg/kg, po; format: ADME, organism-based; design: dose 10 mg/kg, route oral, time 0 - last; settings: in vivo
[18] = Protein binding in human plasma assessed as unbound fraction; format: ADME, cell-free
[19] = biological target: Voltage-gated inwardly rectifying potassium channel KCNH2 (Homo sapiens, UniProt Q12809); test: Inhibition of human ERG by fluorescence polarization assay
[20] = biological target: Mast/stem cell growth factor receptor Kit (Homo sapiens, UniProt P10721); test: Inhibition of cKIT (unknown origin)
[21] = biological target: Non-receptor tyrosine-protein kinase TYK2 (Mus musculus, UniProt Q9R117); test: Inhibition of TYK2 JH2 domain in mouse whole blood assessed as inhibition of IFNalpha-induced STAT1 phosphorylation preincubated for 1 hr followed by IFNalpha stimulation and measured after 15 mins by fluorescence assay; format: tissue-based

Chain of JAK2/TYK2 (O60674 whole entry): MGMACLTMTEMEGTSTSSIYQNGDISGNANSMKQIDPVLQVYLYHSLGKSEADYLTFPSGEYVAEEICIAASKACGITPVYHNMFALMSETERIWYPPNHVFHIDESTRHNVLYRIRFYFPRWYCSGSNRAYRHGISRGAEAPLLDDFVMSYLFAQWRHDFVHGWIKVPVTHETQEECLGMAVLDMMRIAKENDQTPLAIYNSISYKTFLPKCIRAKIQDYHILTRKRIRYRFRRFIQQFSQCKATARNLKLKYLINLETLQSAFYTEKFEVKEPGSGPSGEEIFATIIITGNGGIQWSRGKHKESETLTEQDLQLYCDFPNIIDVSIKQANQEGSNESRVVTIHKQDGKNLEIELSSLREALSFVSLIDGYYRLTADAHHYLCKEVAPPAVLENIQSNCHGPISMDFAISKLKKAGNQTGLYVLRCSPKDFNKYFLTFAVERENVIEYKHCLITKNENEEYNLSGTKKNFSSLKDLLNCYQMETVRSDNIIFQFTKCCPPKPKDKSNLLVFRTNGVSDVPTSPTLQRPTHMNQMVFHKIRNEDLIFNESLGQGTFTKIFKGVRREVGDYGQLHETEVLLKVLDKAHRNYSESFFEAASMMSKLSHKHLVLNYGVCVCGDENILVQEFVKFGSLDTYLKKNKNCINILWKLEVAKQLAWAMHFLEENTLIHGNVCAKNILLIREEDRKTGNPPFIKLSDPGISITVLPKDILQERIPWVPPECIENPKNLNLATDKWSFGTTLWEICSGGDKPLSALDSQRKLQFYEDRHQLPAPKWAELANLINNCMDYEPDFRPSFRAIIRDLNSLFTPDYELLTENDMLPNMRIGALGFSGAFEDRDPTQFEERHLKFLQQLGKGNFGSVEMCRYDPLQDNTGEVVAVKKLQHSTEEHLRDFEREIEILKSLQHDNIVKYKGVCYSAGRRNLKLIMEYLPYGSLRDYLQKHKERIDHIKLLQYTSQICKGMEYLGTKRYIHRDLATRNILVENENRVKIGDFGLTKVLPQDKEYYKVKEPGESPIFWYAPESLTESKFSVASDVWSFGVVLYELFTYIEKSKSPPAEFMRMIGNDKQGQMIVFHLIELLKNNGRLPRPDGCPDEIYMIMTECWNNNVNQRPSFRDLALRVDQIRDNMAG
Chain of JAK2/TYK2 (P29597 whole entry): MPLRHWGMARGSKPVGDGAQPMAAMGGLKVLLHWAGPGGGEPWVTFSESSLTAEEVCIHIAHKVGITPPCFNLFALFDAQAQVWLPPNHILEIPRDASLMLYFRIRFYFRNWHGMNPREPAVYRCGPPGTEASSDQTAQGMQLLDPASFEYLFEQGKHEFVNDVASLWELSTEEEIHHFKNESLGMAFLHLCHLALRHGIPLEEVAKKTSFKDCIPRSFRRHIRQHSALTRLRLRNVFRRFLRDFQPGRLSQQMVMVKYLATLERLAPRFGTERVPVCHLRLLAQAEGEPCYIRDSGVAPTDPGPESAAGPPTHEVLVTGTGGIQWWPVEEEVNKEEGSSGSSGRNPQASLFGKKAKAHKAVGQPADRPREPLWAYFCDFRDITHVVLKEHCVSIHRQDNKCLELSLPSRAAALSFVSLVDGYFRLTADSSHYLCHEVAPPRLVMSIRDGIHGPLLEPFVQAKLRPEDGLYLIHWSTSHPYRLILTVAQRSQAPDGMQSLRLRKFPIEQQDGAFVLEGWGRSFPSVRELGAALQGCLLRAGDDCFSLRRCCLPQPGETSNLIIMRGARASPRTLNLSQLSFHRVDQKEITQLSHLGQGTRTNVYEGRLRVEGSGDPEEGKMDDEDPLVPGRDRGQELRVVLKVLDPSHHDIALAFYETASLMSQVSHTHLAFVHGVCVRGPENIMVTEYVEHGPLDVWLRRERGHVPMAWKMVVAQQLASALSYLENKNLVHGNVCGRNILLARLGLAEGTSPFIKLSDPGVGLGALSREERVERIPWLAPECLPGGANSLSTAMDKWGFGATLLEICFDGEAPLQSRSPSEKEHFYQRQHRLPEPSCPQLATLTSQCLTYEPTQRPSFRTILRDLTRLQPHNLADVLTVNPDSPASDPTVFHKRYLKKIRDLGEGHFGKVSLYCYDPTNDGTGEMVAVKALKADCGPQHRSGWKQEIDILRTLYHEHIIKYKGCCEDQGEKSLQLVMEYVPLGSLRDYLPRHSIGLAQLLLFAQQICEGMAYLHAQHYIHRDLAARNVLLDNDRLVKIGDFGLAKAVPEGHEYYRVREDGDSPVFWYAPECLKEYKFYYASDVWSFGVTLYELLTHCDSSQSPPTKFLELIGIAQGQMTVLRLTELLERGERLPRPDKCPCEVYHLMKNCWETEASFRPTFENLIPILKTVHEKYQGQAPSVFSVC
Chain of Tyrosine-protein kinase JAK2 (O60674 whole entry, the tested form may be a part): as the sequence (O60674 whole entry) above
T1 sequence (P29597 whole entry, the tested form may be a part): as the sequence (P29597 whole entry) above
Chain of JAK3/JAK1 (P52333 whole entry, the tested form may be a part): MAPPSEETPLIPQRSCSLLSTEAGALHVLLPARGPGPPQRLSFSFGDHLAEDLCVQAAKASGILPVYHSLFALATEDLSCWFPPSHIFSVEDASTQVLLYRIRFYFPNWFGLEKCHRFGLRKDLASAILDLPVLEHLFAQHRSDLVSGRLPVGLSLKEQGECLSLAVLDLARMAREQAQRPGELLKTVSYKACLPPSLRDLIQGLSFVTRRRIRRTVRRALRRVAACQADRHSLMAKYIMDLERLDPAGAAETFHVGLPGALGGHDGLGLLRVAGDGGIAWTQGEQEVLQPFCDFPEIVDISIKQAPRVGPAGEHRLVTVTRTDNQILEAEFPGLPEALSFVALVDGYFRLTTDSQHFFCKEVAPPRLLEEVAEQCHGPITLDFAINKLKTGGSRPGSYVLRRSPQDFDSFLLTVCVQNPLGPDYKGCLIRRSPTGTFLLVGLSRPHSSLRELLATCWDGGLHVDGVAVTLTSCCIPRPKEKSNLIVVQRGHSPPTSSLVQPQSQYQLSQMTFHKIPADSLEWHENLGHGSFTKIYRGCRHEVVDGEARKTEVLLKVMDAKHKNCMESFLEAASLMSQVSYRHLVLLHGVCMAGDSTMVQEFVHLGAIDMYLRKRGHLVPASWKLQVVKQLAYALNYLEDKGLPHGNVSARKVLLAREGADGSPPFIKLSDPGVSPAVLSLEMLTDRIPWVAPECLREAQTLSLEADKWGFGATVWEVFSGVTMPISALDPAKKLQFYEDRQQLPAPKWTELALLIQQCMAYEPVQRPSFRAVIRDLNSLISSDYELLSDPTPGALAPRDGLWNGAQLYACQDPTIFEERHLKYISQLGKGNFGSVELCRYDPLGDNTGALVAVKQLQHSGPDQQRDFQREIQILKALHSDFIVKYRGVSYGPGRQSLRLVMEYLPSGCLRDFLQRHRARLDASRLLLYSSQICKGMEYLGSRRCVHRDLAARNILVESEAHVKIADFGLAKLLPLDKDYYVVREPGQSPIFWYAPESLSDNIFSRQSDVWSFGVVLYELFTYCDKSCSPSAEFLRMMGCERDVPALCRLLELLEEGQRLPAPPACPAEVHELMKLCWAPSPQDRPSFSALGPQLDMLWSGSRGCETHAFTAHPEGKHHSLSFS
Chain of JAK3/JAK1 (P23458 whole entry, the tested form may be a part): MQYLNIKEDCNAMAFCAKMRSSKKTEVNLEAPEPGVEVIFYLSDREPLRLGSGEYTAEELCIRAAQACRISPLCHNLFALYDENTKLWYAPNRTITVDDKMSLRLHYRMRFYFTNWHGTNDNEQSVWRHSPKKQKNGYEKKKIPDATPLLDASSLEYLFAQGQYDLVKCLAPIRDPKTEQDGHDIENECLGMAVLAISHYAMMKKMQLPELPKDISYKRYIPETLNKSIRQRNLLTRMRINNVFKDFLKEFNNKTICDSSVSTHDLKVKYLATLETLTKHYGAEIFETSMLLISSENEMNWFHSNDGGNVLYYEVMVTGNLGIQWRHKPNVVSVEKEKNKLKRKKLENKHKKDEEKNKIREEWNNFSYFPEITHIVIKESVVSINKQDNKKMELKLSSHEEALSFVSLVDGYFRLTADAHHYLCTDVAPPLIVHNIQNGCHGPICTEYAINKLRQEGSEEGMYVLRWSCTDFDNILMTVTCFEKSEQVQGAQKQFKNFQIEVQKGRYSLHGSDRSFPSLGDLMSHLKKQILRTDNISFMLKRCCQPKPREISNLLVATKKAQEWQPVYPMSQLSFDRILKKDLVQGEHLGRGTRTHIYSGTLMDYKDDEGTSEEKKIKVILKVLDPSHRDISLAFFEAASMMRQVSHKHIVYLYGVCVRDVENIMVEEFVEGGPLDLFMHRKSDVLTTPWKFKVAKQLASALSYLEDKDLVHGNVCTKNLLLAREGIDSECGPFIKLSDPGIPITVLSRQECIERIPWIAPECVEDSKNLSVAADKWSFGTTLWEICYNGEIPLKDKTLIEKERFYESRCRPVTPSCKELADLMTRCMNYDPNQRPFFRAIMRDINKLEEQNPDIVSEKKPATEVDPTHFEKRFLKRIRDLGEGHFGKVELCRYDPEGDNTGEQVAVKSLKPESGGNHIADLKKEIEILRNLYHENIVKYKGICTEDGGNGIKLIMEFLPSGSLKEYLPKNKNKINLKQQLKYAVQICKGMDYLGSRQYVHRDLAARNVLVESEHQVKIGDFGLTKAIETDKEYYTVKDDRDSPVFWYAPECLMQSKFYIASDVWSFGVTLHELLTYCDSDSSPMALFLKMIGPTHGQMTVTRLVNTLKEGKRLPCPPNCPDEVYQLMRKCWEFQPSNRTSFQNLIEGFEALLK
Chain of Tyrosine-protein kinase JAK1 (P23458 whole entry, the tested form may be a part): as above
Chain of JAK2/JAK1 (P23458 whole entry): as the sequence (P23458 whole entry, the tested form may be a part) above
Chain of JAK2/JAK1 (O60674 whole entry): as the sequence (O60674 whole entry) above
Chain of JAK1/TYK2 (P23458 whole entry, the tested form may be a part): as the sequence (P23458 whole entry, the tested form may be a part) above
Chain of JAK1/TYK2 (P29597 whole entry, the tested form may be a part): as the sequence (P29597 whole entry) above

CNC(=O)c1cnc(Nc2ccccn2)cc1Nc1ccccc1C(N)=O
IC50 [1]: 280 nM
IC50 [2]: 310 nM
IC50 [3]: 1.6 nM

CNC(=O)c1cnc(Nc2ccc(F)cn2)cc1Nc1ccccc1OC
Papp A→B [4]: 26.7 ×10⁻⁶ cm/s
remaining at 10 min [5]: 35%
remaining at 10 min [6]: 28%
IC50 [7]: 3300 nM
efflux ratio [8]: 0.4
IC50 [9]: 9200 nM
remaining at 10 min [10]: 52%
IC50 [1]: 310 nM
IC50 [2]: 510 nM
IC50 [3]: 5.2 nM

NC(=O)c1ccccc1Nc1cc(Nc2ccc(F)cn2)ncc1C(=O)NC1CC1
IC50 [11]: > 12500 nM
IC50 [12]: > 2000 nM
IC50 [13]: > 2000 nM
IC50 [14]: > 2000 nM
IC50 [1]: 3300 nM
IC50 [2]: 5600 nM
IC50 [3]: 33 nM
IC50 [15]: > 12500 nM

CCS(=O)(=O)c1ccccc1Nc1cc(Nc2ccc(F)cn2)ncc1C(=O)NC
Papp A→B [4]: 5.3 ×10⁻⁶ cm/s
remaining at 10 min [5]: 43%
remaining at 10 min [6]: 76%
IC50 [7]: 4400 nM
efflux ratio [8]: 6
IC50 [9]: 4600 nM
remaining at 10 min [10]: 91%
IC50 [1]: 1900 nM
IC50 [2]: 1000 nM
IC50 [3]: 8 nM

CN(C)C(=O)c1cnc(Nc2ccc(F)cn2)cc1Nc1ccccc1C(N)=O
IC50 [11]: > 12500 nM
IC50 [12]: > 2000 nM
IC50 [13]: > 2000 nM
IC50 [14]: > 2000 nM
IC50 [1]: 11000 nM
IC50 [2]: 12000 nM
IC50 [3]: 87 nM
IC50 [15]: > 12500 nM

CNC(=O)c1cnc(Nc2ccc(F)cn2)cc1Nc1ccc(F)c(F)c1OC
Papp A→B [4]: 4.1 ×10⁻⁶ cm/s
Cmax [16]: 1600 nM
remaining at 10 min [5]: 58%
remaining at 10 min [6]: 73%
AUC(0-t) [17]: 4 µM·h
IC50 [7]: 2400 nM
efflux ratio [8]: 0.5
IC50 [9]: 7400 nM
remaining at 10 min [10]: 57%
IC50 [1]: 380 nM
IC50 [2]: 220 nM
IC50 [3]: 1.5 nM

CNC(=O)c1cnc(Nc2ccc(F)cn2)cc1Nc1ccccc1C(N)=O
Papp A→B [4]: < 1.5 ×10⁻⁶ cm/s
Cmax [16]: 36 nM
remaining at 10 min [5]: 82%
IC50 [11]: > 12500 nM
remaining at 10 min [6]: 83%
AUC(0-t) [17]: 0.15 µM·h
IC50 [7]: 530 nM
IC50 [12]: > 2000 nM
efflux ratio [8]: > 35
fraction unbound [18]: 0.263
IC50 [9]: 10400 nM
remaining at 10 min [10]: 94%
IC50 [13]: > 2000 nM
IC50 [14]: > 2000 nM
IC50 [1]: 660 nM
IC50 [2]: 320 nM
IC50 [3]: 1.3 nM
IC50 [15]: > 12500 nM

CNC(=O)c1cnc(Nc2ncccn2)cc1Nc1ccccc1C(N)=O
IC50 [1]: > 12500 nM
IC50 [2]: > 12500 nM
IC50 [3]: 60 nM

CNC(=O)c1cnc(Nc2ccc(C)nn2)cc1Nc1ccccc1S(C)(=O)=O
Papp A→B [4]: < 1.5 ×10⁻⁶ cm/s
IC50 [7]: 630 nM
efflux ratio [8]: > 12
IC50 [1]: 490 nM
IC50 [19]: 43000 nM
IC50 [20]: > 2000 nM
IC50 [2]: 320 nM

CNC(=O)c1cnc(Nc2ccc(N3CCOCC3)cn2)cc1Nc1ccccc1S(C)(=O)=O
Papp A→B [4]: < 1.5 ×10⁻⁶ cm/s
IC50 [7]: 58 nM
efflux ratio [8]: > 26
IC50 [1]: 71 nM
IC50 [19]: 40000 nM
IC50 [20]: > 2000 nM
IC50 [2]: 59 nM

CNC(=O)c1cnc(NC(=O)C(C)C)cc1Nc1ccccc1S(C)(=O)=O
IC50 [7]: 5200 nM
IC50 [1]: 1100 nM
IC50 [20]: > 2000 nM
IC50 [2]: 4400 nM

CNC(=O)c1cnc(Nc2ccc(F)cn2)cc1Nc1ccccc1
Papp A→B [4]: 29.3 ×10⁻⁶ cm/s
remaining at 10 min [5]: 37%
remaining at 10 min [6]: 65%
IC50 [7]: > 10000 nM
efflux ratio [8]: 0.5
IC50 [9]: 4500 nM
remaining at 10 min [10]: 51%
IC50 [1]: 5600 nM
IC50 [2]: 5200 nM
IC50 [3]: 11 nM

CS(=O)(=O)c1ccccc1Nc1cc(Nc2ccc(F)cn2)ncc1C(N)=O
remaining at 10 min [5]: 80%
IC50 [11]: 960 nM
remaining at 10 min [6]: 3%
IC50 [21]: 83 nM
IC50 [7]: 33 nM
IC50 [12]: 43 nM
remaining at 10 min [10]: 77%
IC50 [13]: 18 nM
IC50 [14]: 42 nM
IC50 [1]: 46 nM
IC50 [2]: 35 nM
IC50 [3]: 0.32 nM
IC50 [15]: 260 nM
